# Measurements taken from US4272437A, “Antibacterial agents, and 4-thio azetidinone intermediates” (priority 1979, dated 1981).
# Read-outs that look alike come from different tables or passages of the source.
# Assays:
# [1] = tested on: K. pneumoniae A-15130; test: MIC, tube dilution, Klebsiella pneumoniae A15130; type: cell-based; conditions: overnight 37° C.; for MIC: Klebsiella pneumoniae, A15130, K. pneumoniae A15130, read-out: Minimum Inhibitory Concentration (M.I.C.)
# Excerpt: (§1) Representative compounds of the present invention were subjected to in vitro antibiotic screening against a variety of microorganisms.
# [2] = tested on: Pr. mirabilis A-9900; test: MIC, tube dilution, Proteus mirabilis A9900; type: cell-based; conditions: overnight 37° C.; for MIC: Proteus mirabilis, A9900, Proteus mirabilis A9900, read-out: Minimum Inhibitory Concentration (M.I.C.)
# Excerpt: as §1
# [3] = tested on: Pr. morganii A-15153; test: MIC, tube dilution, Proteus morganii A15153; type: cell-based; conditions: overnight 37° C.; for MIC: Morganella morganii, A15153, Proteus morganii A15153, read-out: Minimum Inhibitory Concentration (M.I.C.)
# Excerpt: as §1
# [4] = tested on: Ps. aeruginosa A-9843A; test: MIC, tube dilution, Pseudomonas aeruginosa A9843A; type: cell-based; conditions: overnight 37° C.; for MIC: Pseudomonas aeruginosa, A9843A, read-out: Minimum Inhibitory Concentration (M.I.C.), Pseudomonas aeruginosa A9843A
# Excerpt: as §1
# [5] = tested on: Proteus rettgeri A21203; test: MIC, tube dilution, Proteus rettgeri A21203; type: cell-based; conditions: overnight 37° C.; for MIC: Providencia rettgeri, A21203, Proteus rettgeri A21203, read-out: Minimum Inhibitory Concentration (M.I.C.)
# Excerpt: as §1
# [6] = tested on: Str. pyogenes A-9604; test: MIC, tube dilution, Streptococcus pyogenes A9604; type: cell-based; conditions: overnight 37° C., Nutrient Broth; for MIC: Streptococcus pyogenes, A9604, Str. pyogenes A9604, read-out: Minimum Inhibitory Concentration (M.I.C.)
# Excerpt: as §1
# [7] = tested on: S. aureus A9537; test: In vivo protection of mice, lethal infection with S. aureus A9537; conditions: IM, 2 treatments; for ED50: Staphylococcus aureus, A9537, im, read-out: PD50
# Procedure: Representative compounds of the present invention were also tested in vivo in mice and their PD50 (dose of compound in mg/kg required to protect 50% of the treated mice against an otherwise lethal infection of a micro-organism) values determined with respect to the test organisms shown below.
# [8] = tested on: Ent. cloacae A-9659; test: MIC, tube dilution, Enterobacter cloacae A9659; type: cell-based; conditions: overnight 37° C.; for MIC: Enterobacter cloacae, A9659, Enterobacter cloacae A9659, read-out: Minimum Inhibitory Concentration (M.I.C.)
# Excerpt: as §1
# [9] = tested on: Staph. aureus (Pen-Res) A-9606; test: MIC, tube dilution, Staphylococcus aureus A9606 (Pen-Res); type: cell-based; conditions: Staph. aureus A9606 (Pen-Res), overnight 37° C.; for MIC: Staphylococcus aureus, read-out: Minimum Inhibitory Concentration (M.I.C.)
# Excerpt: as §1
# [10] = tested on: Proteus vulgaris A21559; test: MIC, tube dilution, Proteus vulgaris A21559; type: cell-based; conditions: overnight 37° C.; for MIC: Proteus vulgaris, A21559, Proteus vulgaris A21559, read-out: Minimum Inhibitory Concentration (M.I.C.)
# Excerpt: as §1
# [11] = tested on: Str. faecalis A-20688; test: MIC, tube dilution, Streptococcus faecalis A20688; type: cell-based; conditions: overnight 37° C.; for MIC: Enterococcus faecalis, A20688, Str. faecalis A20688, read-out: Minimum Inhibitory Concentration (M.I.C.)
# Excerpt: as §1
# [12] = tested on: E. coli A-15119; test: MIC, tube dilution, Escherichia coli A15119; type: cell-based; conditions: overnight 37° C.; for MIC: Escherichia coli, A15119, E. coli A15119, read-out: Minimum Inhibitory Concentration (M.I.C.)
# Excerpt: as §1
# [13] = tested on: Staph. aureus (Meth-Res) A-15097; test: MIC, tube dilution, Staphylococcus aureus A15097 (Meth-Res); type: cell-based; conditions: Staph. aureus A15097 (Meth-Res), overnight 37° C.; for MIC: Staphylococcus aureus, read-out: Minimum Inhibitory Concentration (M.I.C.)
# Excerpt: as §1
# [14] = tested on: Staph. aureus A-9537 and 50% serum; test: MIC, tube dilution, Staph. aureus A9537 + 50% serum; type: cell-based, Staphylococcus aureus; conditions: overnight 37° C.; for MIC: Staphylococcus aureus, read-out: Minimum Inhibitory Concentration (M.I.C.)
# Excerpt: as §1
# [15] = tested on: Ent. cloacae A-9656; test: MIC, tube dilution, Enterobacter cloacae A9656; type: cell-based; conditions: overnight 37° C.; for MIC: Enterobacter cloacae, A9656, Enterobacter cloacae A9656, read-out: Minimum Inhibitory Concentration (M.I.C.)
# Excerpt: as §1
# [16] = tested on: E. coli A-20341-1; test: MIC, tube dilution, Escherichia coli A20341-1; type: cell-based
# Excerpt: as §1
# [17] = tested on: Str. pneumoniae A-9585; test: MIC, tube dilution, Streptococcus pneumoniae A9585; type: cell-based; conditions: overnight 37° C., Nutrient Broth; for MIC: Streptococcus pneumoniae, A9585, Str. pneumoniae A9585, read-out: Minimum Inhibitory Concentration (M.I.C.)
# Excerpt: as §1
# [18] = tested on: Ser. marcescens A-20019; test: MIC, tube dilution, Serratia marcescens A20019; type: cell-based; conditions: overnight 37° C.; for MIC: Serratia marcescens, A20019, Serratia marcescens A20019, read-out: Minimum Inhibitory Concentration (M.I.C.)
# Excerpt: as §1
# [19] = tested on: Ps. aeruginosa A-21213; test: MIC, tube dilution, Pseudomonas aeruginosa A21213; type: cell-based; conditions: overnight 37° C.; for MIC: read-out: Minimum Inhibitory Concentration (M.I.C.)
# Excerpt: as §1
# [20] = tested on: Staph. aureus A-9537; test: MIC, tube dilution, Staphylococcus aureus A9537; type: cell-based; conditions: overnight 37° C., Nutrient Broth; for MIC: Staphylococcus aureus, A9537, Staph. aureus A9537, read-out: Minimum Inhibitory Concentration (M.I.C.)
# Excerpt: as §1
# [21] = tested on: Klebsiella species A20468; test: MIC, tube dilution, Klebsiella species A20468; type: cell-based; conditions: Klebsiella species (K. pneumoniae) A20468, overnight 37° C.; for MIC: read-out: Minimum Inhibitory Concentration (M.I.C.)
# Excerpt: as §1
# [22] = Escherichia coli, A203411, E. coli A20341-1; overnight 37° C.; read-out: Minimum Inhibitory Concentration (M.I.C.)
# [23] = Pseudomonas aeruginosa, A21213, Pseudomonas aeruginosa A21213
structure (smiles),measurement,setting,value
"NC1CCC(C2=C(C(=O)O)N3C(=O)C[C@H]3S2)C1 (single isomer, unassigned) [98 isomer B, 2-(3-Aminocyclopentyl)-penem-3-carboxylic acid]",Minimum Inhibitory Concentration (M.I.C.),[1]; K. pneumoniae A15130,4 µg/mL
same,Minimum Inhibitory Concentration (M.I.C.),[2]; Proteus mirabilis A9900,1 µg/mL
same,Minimum Inhibitory Concentration (M.I.C.),[3]; Proteus morganii A15153,4 µg/mL
same,Minimum Inhibitory Concentration (M.I.C.),[4]; Pseudomonas aeruginosa A9843A,63 µg/mL
same,Minimum Inhibitory Concentration (M.I.C.),[5]; Proteus rettgeri A21203,1 µg/mL
same,Minimum Inhibitory Concentration (M.I.C.),[6]; Str. pyogenes A9604,.008 µg/mL
same,PD50,"[7]; 9.1 × 10^5 organisms, listed as Ex. 98 (isomer B)",0.12 mg/kg/treatment
same,Minimum Inhibitory Concentration (M.I.C.),[8]; Enterobacter cloacae A9659,8 µg/mL
same,Minimum Inhibitory Concentration (M.I.C.),[9],> 63 µg/mL
same,Minimum Inhibitory Concentration (M.I.C.),[10]; Proteus vulgaris A21559,8 µg/mL
same,Minimum Inhibitory Concentration (M.I.C.),[11]; Str. faecalis A20688,8 µg/mL
same,Minimum Inhibitory Concentration (M.I.C.),[12]; E. coli A15119,1 µg/mL
same,Minimum Inhibitory Concentration (M.I.C.),[13],> 63 µg/mL
same,Minimum Inhibitory Concentration (M.I.C.),[14],.25 µg/mL
same,Minimum Inhibitory Concentration (M.I.C.),[15]; Enterobacter cloacae A9656,2 µg/mL
same,Minimum Inhibitory Concentration (M.I.C.),[16]; E. coli A20341-1; overnight 37° C.,16 µg/mL
same,Minimum Inhibitory Concentration (M.I.C.),[17]; Str. pneumoniae A9585,.008 µg/mL
same,Minimum Inhibitory Concentration (M.I.C.),[18]; Serratia marcescens A20019,2 µg/mL
same,Minimum Inhibitory Concentration (M.I.C.),[19]; Pseudomonas aeruginosa A21213,> 63 µg/mL
same,Minimum Inhibitory Concentration (M.I.C.),[20]; Staph. aureus A9537,.03 µg/mL
same,Minimum Inhibitory Concentration (M.I.C.),[21],> 63 µg/mL
"NCc1ccc(C2=C(C(=O)O)N3C(=O)CC3S2)cc1 (stereo not drawn) [Example 74, 2-(p-Aminomethylphenyl)penem-3-carboxylic Acid]",MIC,[1],32 µg/mL
same,MIC,[2],4 µg/mL
same,MIC,[3],16 µg/mL
same,MIC,[4],> 125 µg/mL
same,MIC,[5],16 µg/mL
same,MIC,[6],0.001 µg/mL
same,ED50,[7]; 7.3 × 10^5 organisms,0.82 mg/kg
same,MIC,[8],32 µg/mL
same,MIC,[9],32 µg/mL
same,MIC,[10],16 µg/mL
same,MIC,[11],1 µg/mL
same,MIC,[12],8 µg/mL
same,MIC,[13],32 µg/mL
same,MIC,[14],2 µg/mL
same,MIC,[15],32 µg/mL
same,MIC,"[16]; Escherichia coli, A203411; E. coli A20341-1; overnight 37° C.; read-out: Minimum Inhibitory Concentration (M.I.C.)",125 µg/mL
same,MIC,[17],0.001 µg/mL
same,MIC,[18],16 µg/mL
same,MIC,[19]; Pseudomonas aeruginosa A21213,> 125 µg/mL
same,MIC,[20],0.004 µg/mL
same,MIC,[21],> 125 µg/mL
"CC(N)CCC1=C(C(=O)O)N2C(=O)C[C@H]2S1 (stereo partly drawn) [Example 80, 2-(3'-Aminobutyl)-penem-3-carboxylic Acid]",MIC,[1],8 µg/mL
same,MIC,[2],4 µg/mL
same,MIC,[3],16 µg/mL
same,MIC,[4],63 µg/mL
same,MIC,[5],8 µg/mL
same,MIC,[6],0.06 µg/mL
same,ED50,[7]; 8 × 10^5 organisms,0.6 mg/kg
same,MIC,[8],16 µg/mL
same,MIC,[9],0.5 µg/mL
same,MIC,[10],8 µg/mL
same,MIC,[11],16 µg/mL
same,MIC,[12],4 µg/mL
same,MIC,[13],> 63 µg/mL
same,MIC,[14],0.25 µg/mL
same,MIC,[15],8 µg/mL
same,MIC,[16]; [22],8 µg/mL
same,MIC,[17],0.03 µg/mL
same,MIC,[18],8 µg/mL
same,MIC,[19]; [23],> 63 µg/mL
same,MIC,[20],0.06 µg/mL
same,MIC,[21],> 63 µg/mL
"CCCC(N)C1=C(C(=O)O)N2C(=O)CC2S1 [Example 82, (1'R,5R and 1'S,5S) and (1'R,5S and 1'S,5R) 2-(1'-Aminobutyl)-penem-3-carboxylic Acid]",MIC,[1],32 µg/mL
same,MIC,[2],4 µg/mL
same,MIC,[3],16 µg/mL
same,MIC,[4],> 125 µg/mL
same,MIC,[5],8 µg/mL
same,MIC,[6],0.016 µg/mL
same,ED50,[7]; 1 × 10^6 organisms,1.25 mg/kg
same,MIC,[8],63 µg/mL
same,MIC,[9],16 µg/mL
same,MIC,[10],8 µg/mL
same,MIC,[11],63 µg/mL
same,MIC,[12],8 µg/mL
same,MIC,[13],4 µg/mL
same,MIC,[14],4 µg/mL
same,MIC,[15],32 µg/mL
same,MIC,[16]; [22],32 µg/mL
same,MIC,[17],0.016 µg/mL
same,MIC,[18],16 µg/mL
same,MIC,[19]; Pseudomonas aeruginosa A21213,> 125 µg/mL
same,MIC,[20],0.25 µg/mL
same,MIC,[21],> 125 µg/mL
"N#CCCC(N)C1=C(C(=O)O)N2C(=O)C[C@H]2S1 (stereo partly drawn) [Example 83, 2-(1'-Amino-3'-cyanopropyl)-penem-3-carboxylic Acid]",MIC,[1],8 µg/mL
same,MIC,[2],2 µg/mL
same,MIC,[3],4 µg/mL
same,MIC,[4],63 µg/mL
same,MIC,[5],4 µg/mL
same,MIC,[6],0.13 µg/mL
same,ED50,[7]; 1.1 × 10^6 organisms,3.3 mg/kg
same,MIC,[8],16 µg/mL
same,MIC,[9],32 µg/mL
same,MIC,[10],8 µg/mL
same,MIC,[11],125 µg/mL
same,MIC,[12],2 µg/mL
same,MIC,[13],> 125 µg/mL
same,MIC,[14],8 µg/mL
same,MIC,[15],4 µg/mL
same,MIC,[16]; [22],16 µg/mL
same,MIC,[17],0.06 µg/mL
same,MIC,[18],4 µg/mL
same,MIC,[19]; [23],63 µg/mL
same,MIC,[20],0.5 µg/mL
same,MIC,[21],> 125 µg/mL
